In paper PMC7606276, “The Antibacterial Effects of New N-Alkylpyridinium Salts on Planktonic and Biofilm Bacteria” (Frontiers in Microbiology, 2020):
Where two headings read alike, the source gives them in different places.

How the values were obtained:
CHO-K1 cells = test: MTT cell viability assay on CHO-K1 cells; type: cell-based, Chinese hamster; conditions: 24 h exposure
Method: Standard MTT assay (3-(4,5-dimethylthiazol-2-yl)-2,5-diphenyltetrazolium bromide; Sigma-Aldrich, Prague, Czechia) was used according to the manufacturer’s protocol on the CHO-K1 (Chinese hamster ovary, ECACC, Salisbury, United Kingdom) in order to compare the effect of different compounds within the series. The cells were cultured according to ECACC recommended conditions and seeded in a density of 8000 per well as described previously ([Soukup et al., 2020]). […] Thereafter, CHO-K1 cells were exposed to two-fold diluted series A, B, C or ten-fold diluted sodium hypochlorite for 24 h. Then the medium was replaced by a medium containing 0.5 mg/ml of MTT and the cells were allowed to produce formazan for approximately 3 h under surveillance. Thereafter, the medium with MTT was removed and crystals of formazan were dissolved in DMSO (100 μl/well). Cell viability was assessed spectrophotometrically by the amount of formazan produced. The absorbance was measured at 570 nm on Synergy HT (BioTek, Winooski, VT, United States). IC50 (half maximal inhibitory concentration) was then calculated from the control – subtracted triplicates using non-linear regression (four parameters) by GraphPad Prism 5.03 or 7.03 software (GraphPad Software Inc., San Diego, CA, United States). Final IC50 and SEM (standard error of the mean) values were obtained as a mean of three independent measurements.

[1] = test system: E. faecalis plankton and biofilm; test: Comparison of effectiveness in plankton and biofilm (matched fraction of dead cells); type: cell-based, Enterococcus faecalis; conditions: for dilution in plankton needed to match the fraction of dead cells in the biofilm: high density E. faecalis suspension 2.4 × 10^9 CFU/mL
Text: In plankton suspensions we were able to reach bactericidal concentration for all tested QACs. The situation was quite different in biofilms. The concentrations that work in plankton were not sufficient to kill all bacteria in the biofilm. […] Unfortunately, due to the solubility limit, it was not possible to increase the concentration of the QACs to concentrations that would kill all bacteria in the biofilm. Nevertheless, we can compare the effectiveness in plankton and biofilm if we decrease the concentration of biocide in the plankton to match the fraction of the dead cells in the biofilm. […] The experiment was performed at high density E. faecalis suspensions (2.4 × 10^9 CFU/mL) to mimic the high density of bacteria in a biofilm. By comparing QACs effectiveness at high initial planktonic densities we have largely eliminated the effect of the bacterial density and estimated the effect of biofilm induced changes on QACs sensitivity. One has to be careful, however, as bacterial cells in plankton differ from biofilm not only in cell density but also in cell metabolism and extracellular matrix viscoelasticity. To match the fraction of dead cells in the biofilm, the 10-fold dilution of compounds A14 and B14 were needed, whereas only 4-fold dilution of compound C14 was required. […] The activity of QACs in biofilms relative to plankton was two orders of magnitude […] than usually reported in the literature. Although our biofilms were mature, they were relatively thin (up to 10 μm) which may explain the relatively high efficiency of the QACs against biofilms. Similar observations have been made for S. mutans biofilms, where biofilm cells were only 8 times less susceptible to QACs compared to plankton bacteria ([López Pérez et al., 2017]).

[2] = test system: E. faecalis biofilms on titanium surface; test: Biofilm susceptibility assay, live/dead staining CLSM; type: cell-based, Enterococcus faecalis; conditions: for biofilm surface coverage change during the treatment: 1, 3 and 60 min of treatment; for proportion of live cells in biofilm: after 60 min of treatment
Method: To grow the biofilms, an overnight culture of E. faecalis (average viable bacterial concentration of 1 × 10^8 CFU/ml) was diluted 100-fold in BHI. E. faecalis biofilms were formed on titanium radial disks (commercially pure titanium, grade 2) with 7 mm diameter and 1 mm thickness. Prior to the experiments all disks were sandblasted (FerroEcoBlast Europe; Microblast ceramic beads B120) to expose fresh titanium surface, cleaned in 70% ethanol and autoclaved at 134°C for 20 min. The biofilms were grown for 3 days at 37°C ± 1°C without shaking or changing of media to achieve a surface coverage of approximately 25% and a surface bacterial density of ∼1.5 × 10^11 bacteria […]. Biofilms grown on a titanium surface were exposed to 1.5 ml of A14, B14, and C14 dissolved in BHI for 1, 3, and 60 min. After treatment the individual disks were rinsed with saline solution to remove QACs as well as unattached bacteria. In laser treated biofilms samples were treated with QACs for 1 min followed by 10 s of Er:YAG – SSP laser treatment. The LightWalker Er:YAG (Fotona, Ljubljana, Slovenia) was set with the following parameters: laser wavelength 2940 nm; contact handpiece H14, Flat Sweeps fiber tip 400/14 positioned 5 mm above the biofilm disk, energy 20 mJ, frequency 15 Hz, water off, air off, single pulse modality – SSP (super short pulse – 50 μs). The titanium disks with their biofilm were positioned at the bottom of cylindrical irrigation system (7.5 mm diameter and 2 cm high) in the presence of 1.5 ml of either saline or the QAC dissolved in BHI. The antibacterial concentration was 250 μM which was the highest soluble QAC concentration in BHI broth. The rinsed biofilms were stained with 5 μL of premixed saline-diluted Syto 9 and propidium iodide stock solutions (1: 300) from LIVE/DEAD^TM BacLight^TM Bacterial Viability Kit L7012 (Thermo Fisher Scientific, Eugene, OR, United States). After 5 min of incubation in the dark the samples were observed by fluorescence microscope Zeiss Axio Observer Z1 equipped with confocal unit LSM 800 (CLSM). Z-stacks and tiles were taken at 100× or 20× magnification at three randomly selected view fields. Image acquisition and control of the microscope were performed with ZEN 2.3 (ZEISS GmbH, Germany). For the 100× magnification, blue 488 nm and yellow 561 nm lasers were set to 1% intensity, GaAsP PMT detectors to 700 V, pinhole to 71 μm, and the size of the acquired 8-bit images was 3476 × 3476 pixels. For the 20× magnification, blue 488 nm and yellow 561 nm lasers were set to 0.85% intensity, GaAsP PMT detectors to 700 V, pinhole to 50 μm and the size of acquired 8-bit images was 1306 × 1306 pixels. The typical Z-step of the Z-stack was 1 μm for 100× magnification and 3.26 μm for 20× magnification. The images were composed of four different view fields. A custom script was written (Image J) and used to evaluate the effect of treatment on the fraction of dead cells and biofilm surface coverage.

[3] = test system: Enterococcus faecalis DSM 16431; test: MBC of planktonic E. faecalis at different initial bacterial densities; type: cell-based
Method: The antibacterial susceptibility of planktonic bacteria was determined by the broth microdilution method according to the standard M07-A1 ([CLSI, 2018]) and optimized as described previously ([Marek et al., 2015]; [Dolezal et al., 2016]). All antibacterial compounds were dissolved in dimethyl sulfoxide (DMSO p.a., Sigma-Aldrich, Prague, Czechia). The wells of the 96-well microtiter plates contained 200 μL of Mueller-Hinton broth (MHB, HiMedia, Cadersky-Envitek, Prague, Czechia) with two-fold serial dilutions of the QACs (500–0.49 μmol/L) and were inoculated with 10 μL of exponentially grown bacterial suspension adjusted densitometrically to match 0.5 McFarland scale. […] The MBCs were determined for all prepared compounds as the concentrations that provided ≥99.9% decrease in the bacterial number after subculture of 10 μL aliquots from each microtiter well in a corresponding new microtiter plate where each well contained 200 μL of fresh MHB. The MBC was determined as the lowest concentration which corresponded to a well without visible bacterial growth after a further 24 h of incubation at 35 ± 1°C. To ensure that no bacteria had survived, the content of the well was inoculated on an agar plate to confirm the absence of bacterial growth.
To evaluate the effect of bacterial density on the antibacterial activity of the QACs, E. faecalis suspensions from an overnight culture were prepared in the range from 10^6 to 10^10 CFU/mL in Brain Heart Infusion broth (BHI, VWR International BVBA, Leuven, Belgium) by either diluting or concentrating bacterial suspensions. The MBCs corresponding to E. faecalis suspensions with different initial bacterial densities were determined only for the compound A14 in the concentration range between 500 and 0.49 μM prepared by 2-fold serial dilutions. The MBCs were evaluated as described above after the bacteria were exposed to the QACs for 3 min, 60 min or 24 h. The growth rate of tested E. faecalis suspensions at different initial bacterial densities was monitored every 30 min during 7 h of incubation by measuring the optical density (OD600). The values were fitted with the logistic equation

[4] = test system: osteosarcoma cybrid cells; set-up: method as in Datta et al., 2017; conditions: cytotoxicity, ref Datta et al., 2017; cited from earlier work
human hepatoma cell line = test system: human hepatoma cell line; set-up: method as in Christen et al., 2017; conditions: cytotoxicity, ref Christen et al., 2017; cited from earlier work
Human alveolar cells = test system: Human alveolar cells; set-up: method as in Kwon et al., 2019; conditions: cytotoxicity, ref Kwon et al., 2019; cited from earlier work

CCCCCCCCCCCC[n+]1ccccc1 [Compound A12, 1-dodecylpyridinium]
IC50 (CHO-K1 cells; Cricetulus griseus): 38.8 ± 0.9 µM

CCCCCCCCCCCCCC[n+]1ccccc1 [Compound A14]
dilution in plankton needed to match the fraction of dead cells in the biofilm [1]: 10 fold | biofilm surface coverage change during the treatment ([2]; 250 μM): did not change significantly | proportion of live cells in biofilm ([2]; 250 μM): 18% | MBC ([3]; DSM16431, 0.05 h, 3 min exposure, initial CFU/mL 10^6, read-out: MBC 3 min): 63 µM | MBC ([3]; DSM16431, 0.05 h, 3 min exposure, initial CFU/mL 10^7, read-out: MBC 3 min): 63 µM | MBC ([3]; DSM16431, 0.05 h, 3 min exposure, initial CFU/mL 10^8, read-out: MBC 3 min): 31 to 63 µM | MBC ([3]; DSM16431, 0.05 h, 3 min exposure, initial CFU/mL 10^9, read-out: MBC 3 min): 250 µM | MBC ([3]; DSM16431, 0.05 h, 3 min exposure, initial CFU/mL 10^10, read-out: MBC 3 min): > 250 µM | MBC ([3]; DSM16431, 1 h, 60 min exposure, initial CFU/mL 10^6, read-out: MBC 60 min): 31 µM | MBC ([3]; DSM16431, 1 h, 60 min exposure, initial CFU/mL 10^7, read-out: MBC 60 min): 31 µM | MBC ([3]; DSM16431, 1 h, 60 min exposure, initial CFU/mL 10^8, read-out: MBC 60 min): 63 µM | MBC ([3]; DSM16431, 1 h, 60 min exposure, initial CFU/mL 10^9, read-out: MBC 60 min): 125 µM | MBC ([3]; DSM16431, 1 h, 60 min exposure, initial CFU/mL 10^10, read-out: MBC 60 min): 250 µM | MBC ([3]; DSM16431, 24 h, 24 h exposure, initial CFU/mL 10^6, read-out: MBC 24 h): 16 to 31 µM | MBC ([3]; DSM16431, 24 h, 24 h exposure, initial CFU/mL 10^7, read-out: MBC 24 h): 16 to 31 µM | MBC ([3]; DSM16431, 24 h, 24 h exposure, initial CFU/mL 10^8, read-out: MBC 24 h): 31 µM | MBC ([3]; DSM16431, 24 h, 24 h exposure, initial CFU/mL 10^9, read-out: MBC 24 h): 31 to 63 µM | MBC ([3]; DSM16431, 24 h, 24 h exposure, initial CFU/mL 10^10, read-out: MBC 24 h): 250 µM | MBC ([3]; DSM16431, 24 h, after 24 h, 10^6 CFU/ml initial bacterial density, read-out: relative MBC value per bacterial cell): 2.1e-05 µM | MBC ([3]; DSM16431, 24 h, after 24 h, 10^10 CFU/ml initial bacterial density, read-out: relative MBC value per bacterial cell): 2.7e-08 µM | IC50 (CHO-K1 cells; Cricetulus griseus): 24.7 ± 0.2 µM

CCCCCCCCCCCC[n+]1cccc(Cl)c1.[Br-] [Compound B12, 1-dodecyl-3-chloropyridinium bromide]
melting point: 68.5 to 69.2 °C | IC50 (CHO-K1 cells; Cricetulus griseus): 25.5 ± 2.5 µM

CCCCCCCCCCCCCC[n+]1cccc(Cl)c1.[Br-] [Compound B14, 1-tetradecyl-3-chloropyridinium bromide]
dilution in plankton needed to match the fraction of dead cells in the biofilm [1]: 10 fold | biofilm surface coverage change during the treatment ([2]; 250 μM): did not change significantly | proportion of live cells in biofilm ([2]; 250 μM): 14% | IC50 (CHO-K1 cells; Cricetulus griseus): 17.2 ± 1.3 µM

CCCCCCCCCCCCCCCC[n+]1cccc(Cl)c1.[Br-] [Compound B16, 1-hexadecyl-3-chloropyridinium bromide]
melting point: 91.4 to 92.2 °C | IC50 (CHO-K1 cells; Cricetulus griseus): 12.5 ± 1.1 µM

CCCCCCCCCCCC[n+]1ccn(CCO)c1 [Compound C12]
IC50 (CHO-K1 cells; Cricetulus griseus): 1.43 ± 3 µM

CCCCCCCCCCCCCC[n+]1ccn(CCO)c1.[Br-] [Compound C14, 3-tetradecyl-1-(2-hydroxyethyl)imidazolium bromide]
resistance of biofilm bacteria compared to planktonic bacteria [1]: 4 fold | dilution in plankton needed to match the fraction of dead cells in the biofilm [1]: 4 fold | biofilm surface coverage change during the treatment ([2]; 250 μM): did not change significantly | fraction of dead cells in biofilm ([2]; after 1 min of treatment, 250 μM): majority of cells in the biofilm were dead | fraction of dead bacteria in biofilm ([2]; after 3 min of treatment, 250 μM): 86 ± 4% | proportion of live cells in biofilm ([2]; 250 μM): 3% | IC50 (CHO-K1 cells; Cricetulus griseus): 1.19 ± 0.9 µM

CCCCCCCCCCCCCCCC[n+]1ccn(CCO)c1 [Compound C16]
melting point: 49.2 to 50.1 °C | IC50 (CHO-K1 cells; Cricetulus griseus): 1.03 ± 1 µM

[Na+].[O-]Cl [Sodium hypochlorite, reference compound]
biofilm coverage ([2]; after 1 min of exposure, 3% V/V, positive control): below 1% | IC50 (CHO-K1 cells): 6.45 ± 1.1 µM

benzalkonium chloride
IC50 [4]: ~22.8 µM | EC50 (human hepatoma cell line): ~12.4 µM | IC50 (Human alveolar cells): ~14.8 µM
